Marks after values point to notes of the source that are not given here.
Test system: Staphylococcus aureus MRSABAA-42
Assay: Bronchus pneumonia mice infected by Staphylococcus aureus MRSA BAA-42, treated by atomization inspiring
Type: in vivo
Conditions: for bacterial number: mice lung

Substance: Human lysozyme: gene recombinant Human Lysozyme (HLZ), active unit 30000 u/mg, batch number 020110; given atomized / as aerosol
- accumulative survival number (2 mg/ml atomization inspired, 30 mice, 14 days): 23
- survival rate (%) (2 mg/ml atomization inspired, 14 days): 76.7%
- Death number(piece) (2 mg/ml atomization inspired, day 1): 0 piece
- Death number(piece) (2 mg/ml atomization inspired, day 2): 0 piece
- Death number(piece) (2 mg/ml atomization inspired, day 3): 0 piece
- Death number(piece) (2 mg/ml atomization inspired, day 4): 0 piece
- Death number(piece) (2 mg/ml atomization inspired, day 5): 0 piece
- Death number(piece) (2 mg/ml atomization inspired, day 6): 0 piece
- Death number(piece) (2 mg/ml atomization inspired, day 7): 0 piece
- Death number(piece) (2 mg/ml atomization inspired, day 9): 2 piece
- Death number(piece) (2 mg/ml atomization inspired, day 10): 1 piece
- Death number(piece) (2 mg/ml atomization inspired, day 11): 2 piece
- Death number(piece) (2 mg/ml atomization inspired, day 12): 0 piece
- Death number(piece) (2 mg/ml atomization inspired, day 13): 0 piece
- Death number(piece) (2 mg/ml atomization inspired, day 14): 0 piece
- survival elevation rate (%) (2 mg/ml atomization inspired, versus infected model group): 60.0%
- improving of survival rate and days over infected control group (2, 1, 0.5 mg/ml, p<0.05): 30-60%
- lung bacterial number (by the 14th day, basically negative): < 10 CFU/ml
- The 4th day (bacterial number, head incomplete) (dose 0.5): 5.0 ± 3.0
- The 5th day (bacterial number, head incomplete) (dose 0.5, the 5th day): 80.80 ± 14.28
- The 4th day (bacterial number, head incomplete) (dose 1): 5.5 ± 3.2
- The 5th day (bacterial number, head incomplete) (dose 1, the 5th day): 78.30 ± 17.86
- The 4th day (bacterial number, head incomplete) (dose 2): 3.5 ± 2.0
- The 5th day (bacterial number, head incomplete) (dose 2, the 5th day): 76.70 ± 11.60
- result of pathology detection of the mice bronchus (high dose 2 mg/ml, 3rd day): bronchus moderate inflammation, mucous membrane
- result of pathology detection of the mice lung tissue (high dose 2 mg/ml, 3rd day): part of alveolar wall tissue thickening, few monocaryon
- result of pathology detection of the mice trachea (high dose 2 mg/ml, 3rd day): acute moderate inflammation
- result of pathology detection of the mice bronchus (high dose 2 mg/ml, 7th day): bronchus moderate inflammation, intact mucous
- result of pathology detection of the mice lung tissue (high dose 2 mg/ml, 7th day): normal basically
- result of pathology detection of the mice trachea (high dose 2 mg/ml, 7th day): Normal basically
- result of pathology detection of the mice bronchus (high dose 2 mg/ml, 14th day): Normal basically
- result of pathology detection of the mice bronchus (low dose 0.5 mg/ml, 3rd day): bronchus moderate inflammation
- result of pathology detection of the mice lung tissue (low dose 0.5 mg/ml, 3rd day): the disperse alveolar wall tissue gently thickening,
- result of pathology detection of the mice trachea (low dose 0.5 mg/ml, 3rd day): acute hyperphlogosis
- result of pathology detection of the mice bronchus (low dose 0.5 mg/ml, 7th day): bronchus moderate inflammation
- result of pathology detection of the mice lung tissue (low dose 0.5 mg/ml, 7th day): the part or disperse alveolar wall tissue gently
- result of pathology detection of the mice trachea (low dose 0.5 mg/ml, 7th day): acute hyperphlogosis
- result of pathology detection of the mice bronchus (low dose 0.5 mg/ml, 14th day): bronchus moderate inflammation, bleeding
- result of pathology detection of the mice trachea (low dose 0.5 mg/ml, 14th day): acute mild inflammation
- result of pathology detection of the mice bronchus (medium dose 1 mg/ml, 3rd day): bronchus moderate inflammation, bleeding, hydroncus,
- result of pathology detection of the mice lung tissue (medium dose 1 mg/ml, 3rd day): bronchiole alveolar wall tissue thickening, few
- result of pathology detection of the mice trachea (medium dose 1 mg/ml, 3rd day): acute moderate inflammation
- result of pathology detection of the mice bronchus (medium dose 1 mg/ml, 7th day): bronchus moderate inflammation
- result of pathology detection of the mice trachea (medium dose 1 mg/ml, 7th day): acute moderate inflammation
- result of pathology detection of the mice bronchus (medium dose 1 mg/ml, 14th day): bronchus moderate inflammation
- result of pathology detection of the mice lung tissue (medium dose 1 mg/ml, 14th day): normal basically
- result of pathology detection of the mice trachea (medium dose 1 mg/ml, 14th day): Normal basically
- pharmacology histology detection of trachea, bronchus, lung tissue (mice killed on the 7th, 14th day after administration): turned to normal basically
- bacterial number (atomization inspired 0.5 (15000 u/piece), the 1th day): 350.60 ± 21.5 CFU/mL
- bacterial number (atomization inspired 0.5 (15000 u/piece), the 3rd day): 241.90 ± 16.62 CFU/mL
- bacterial number (atomization inspired 0.5 (15000 u/piece), the 5th day): 134.60 ± 13.58 CFU/mL
- bacterial number (atomization inspired 0.5 (15000 u/piece), the 14th day): 57.60 ± 15.37 CFU/mL
- bacterial number (atomization inspired 1 (30000 u/piece), 0 day): 350 ± 21.5 CFU/mL
- bacterial number (atomization inspired 1 (30000 u/piece), the 1th day): 254.20 ± 25.42 CFU/mL
- bacterial number (atomization inspired 1 (30000 u/piece), the 3rd day): 172.70 ± 17.62**^ΔΔ CFU/mL
- bacterial number (atomization inspired 1 (30000 u/piece), the 14th day): 3.5 ± 0.20 CFU/mL
- bacterial number (atomization inspired 2 (60000 u/piece), the 1th day): 253.80 ± 22.88 CFU/mL
- bacterial number (atomization inspired 2 (60000 u/piece), the 3rd day): 165.80 ± 16.08^ΔΔ CFU/mL
- bacterial number (atomization inspired 2 (60000 u/piece), the 5th day): 76.70 ± 11.60***^ΔΔ CFU/mL
- bacterial number (atomization inspired 2 (60000 u/piece), the 14th day): 2.50 ± 1.46 CFU/mL

Reference: patent US20080031868A1, “HUMAN LYSOZYME MEDICINE, ITS MANUFACTURING METHOD AND APPLICATION THEREOF” (priority 2005, published 2008)
